Laboratory results: patent publication US6764858B2, “Methods for creating a compound library” (Pharmacia & Upjohn Company, priority 1999, dated 2004)

Molecular target: T1, thrombin (Homo sapiens, UniProt P00734)
T1 construct: purchased Sigma
Experiment: WaterLOGSY NMR screen of the functional genomics library against thrombin
Type: binding
Conditions: 133 μM compound, 7 μM thrombin, 100 mM phosphate buffer, pH6.5
Experimental: Several proteins with known functions were used for validating the screening library. The proteins were dissolved in 100 mM phosphate buffer, pH 6.5 to make stock solutions which were further diluted and mixed with the compound mixtures to make final concentration of 5-7 μM. The concentration of compounds was about 133 μM in the final solution. The ratio of compound to protein concentrations was about 20:1.
NMR experiments for validating the functional genomics library with proteins of known functions were conducted on a Bruker Avance 600 MHz spectrometer equipped with 5 mm FISEI flow probe and Gilson 215 liquid sample handler. Binding was detected using the WaterLOGSY experiment.
The functional genomics screening library was screened against thrombin obtained from Sigma, which is one of the test proteins used for validation of the library. One assay mixture contained 133 μM of N-alpha-dansyl-DL-tryptophan cyclohexylammonium salt (DPS) and 7 μM of thrombin in 100 mM phosphate buffer, pH6.5. This mixture also contained Benzyl (S)-(−)-2-(1-pyrrolidinylcarbonyl)-1-pyrrolidinecarboxylate (ZPR), Chymostatin A (CSA), Tetrahydrofolic acid (C2F), Haloperidol (THK). Referring to FIG. 17, the reference NMR spectrum of DPS is in the top panel while the WaterLOGSY spectrum of the mixture is shown in the bottom panel. The positive peak in the WaterLOGSY spectrum indicates binding of DPS to thrombin. […]

CN(C)c1cccc2c(S(=O)(=O)NC(Cc3c[nH]c4ccccc34)C(=O)O)cccc12.NC1CCCCC1 (racemic) [DPS, N-alpha-dansyl-DL-tryptophan cyclohexylammonium salt]
binding to thrombin (positive peak in WaterLOGSY spectrum): binding
